One assay deals with L1210 Leukemia. Description: Conjunctive therapy of L1210 leukemia in vivo (survival). Particulars: BDF1 male mice, 10^5 L1210 cells i.p. day 0, control 7.6±0.5. As for the experimental part: Groups of 5 mice (BDF1 male) were inoculated i.p. with 10^5 L1210 leukemia cells on day 0. Vinblastine was administered at 0.5 mg/kg, i.p., on day 3. The compound N,N'-bis(3-(ethylamino) propyl]-1,7-heptanediamine was administered at 5 mg/kg, every 3 hours, 4 times per day, on days 4 and 5. Control group received no treatment after inoculation. Relative survival time was determined and expressed as % T/C (mean survival time treated/mean survival time control x 100). The results of these studies are presented in Table 1. Table 1

Assay [1] has as its system MCA38 (mouse colon adenocarcinoma). Description: Cell viability by colorimetric MTT assay after 96 hour incubation, MCA38 cells. The class given is cell-based. The conditions noted are these: for IC50: Mus musculus, 96 h. As for the experimental part:
(§1) In addition, the Fractional Inhibitory Concentration (FIC) for the various treatments was calculated. FIC's are an accepted measurement of synergy [Middleton and Westmacott, J.Antimicrobial Chemother. […] For two interacting drugs, the sum of the FIC's of each of the treatments expresses the extent of the synergistic interaction.
(§2) Where FIC is less than 1, there is synergy between the two treatments, where FIC is 1, there is no synergy (additive effect). The smaller the value for FIC, the greater the synergistic interaction.
In general terms: Tetrazolium dyes change colour on reduction, which living cells bring about.

A further assay concerns HeLa cells. Description: Cell viability by colorimetric MTT assay after 96 hour incubation, HeLa cells. In kind it is cell-based. Particulars: for IC50: Homo sapiens, HeLa. On the procedure: as §1, §2

This note sets out measurements from patent EP0490380B1, “Use of N,N'-bis 3-(ethylamino)propyl -1,7-heptanediamine and a cytotoxic agent” (MERRELL PHARMACEUTICALS INC., priority 1990, dated 1992).

Usually IC50 stands for the concentration that inhibits the measured activity by half.

Read-outs that look alike come from different tables or passages of the source. Marks after values point to notes of the source that are not given here.

Take `CC[C@]1(O)C[C@@H]2CN(CCc3c([nH]c4ccccc34)[C@@](C(=O)OC)(c3cc4c(cc3OC)N(C)[C@H]3[C@@](O)(C(=O)OC)[C@H](OC(C)=O)[C@]5(CC)C=CCN6CC[C@]43[C@@H]65)C2)C1` [Vinblastine, vinblastine]: the “Mean Survival Time” value in the assay on L1210 Leukemia (Vinblastine 0.5 mg/kg i.p. day 3) came out at 10.0 ± 0.7 days. Also, the IC50 was determined as 59.5 ng/mL in assay [1] (MCA 38 cells, 28,314 at 0 µg/mL (vinblastine alone), read-out: IC50 Vinblastin); 54.8 ng/mL in assay [1] (MCA 38 cells, 28,314 at 0.1563 µg/mL, read-out: IC50 Vinblastin); 43 ng/mL in assay [1] (MCA 38 cells, 28,314 at 0.3125 µg/mL, read-out: IC50 Vinblastin); 33 ng/mL in assay [1] (MCA 38 cells, 28,314 at 0.625 µg/mL, read-out: IC50 Vinblastin); 25 ng/mL in assay [1] (MCA 38 cells, 28,314 at 1.25 µg/mL, read-out: IC50 Vinblastin); 15 ng/mL in assay [1] (MCA 38 cells, 28,314 at 2.5 µg/mL, read-out: IC50 Vinblastin). For the same compound, the IC50 is 3 ng/mL in assay [1] (MCA 38 cells, 28,314 at 5.0 µg/mL, read-out: IC50 Vinblastin); 1.6 ng/mL in the assay with HeLa cells (96 h, 28,314 at 0 µg/mL (vinblastine alone), read-out: IC50 Vinblastin); 1.33 ng/mL in the assay with HeLa cells (96 h, 28,314 at 0.1563 µg/mL, read-out: IC50 Vinblastin); 1.33 ng/mL in the assay with HeLa cells (96 h, 28,314 at 0.3125 µg/mL, read-out: IC50 Vinblastin); 1.19 ng/mL with HeLa cells (96 h, 28,314 at 0.625 µg/mL, read-out: IC50 Vinblastin); 1.17 ng/mL with HeLa cells (96 h, 28,314 at 1.25 µg/mL, read-out: IC50 Vinblastin). Further, the IC50 in the assay on HeLa cells (96 h, 28,314 at 2.5 µg/mL, read-out: IC50 Vinblastin) turned out to be 0.63 ng/mL; with HeLa cells (96 h, 28,314 at 5 µg/mL, read-out: IC50 Vinblastin), 0.24 ng/mL; in the assay on HeLa cells (96 h, 28,314 at 10 µg/mL, read-out: IC50 Vinblastin), 0.11 ng/mL; in the assay on HeLa cells (96 h, 28,314 at 20 µg/mL, read-out: IC50 Vinblastin) it was 0.09 ng/mL.
On to `Nc1ccn([C@@H]2O[C@H](CO)[C@@H](O)[C@@H]2O)c(=O)n1` [AraC, cytarabine], for which the IC50 is 660 ng/mL in assay [1] (MCA 38 cells, 28,314 at 0 µg/mL (AraC alone), read-out: IC50 AraC); 596 ng/mL in assay [1] (MCA 38 cells, 28,314 at 0.1563 µg/mL, read-out: IC50 AraC); 488 ng/mL in assay [1] (MCA 38 cells, 28,314 at 0.3125 µg/mL, read-out: IC50 AraC); 360 ng/mL in assay [1] (MCA 38 cells, 28,314 at 0.625 µg/mL, read-out: IC50 AraC); 230 ng/mL in assay [1] (MCA 38 cells, 28,314 at 1.25 µg/mL, read-out: IC50 AraC); 71 ng/mL in assay [1] (MCA 38 cells, 28,314 at 2.5 µg/mL, read-out: IC50 AraC). The half-inhibitory concentration (IC50) with HeLa cells (96 h, 28,314 at 0 µg/mL (AraC alone), read-out: IC50 AraC) amounted to 1020 ng/mL; in the assay with HeLa cells (96 h, 28,314 at 0.1563 µg/mL, read-out: IC50 AraC) it was 630 ng/mL; in the assay with HeLa cells (96 h, 28,314 at 0.3125 µg/mL, read-out: IC50 AraC), 600 ng/mL; in the assay with HeLa cells (96 h, 28,314 at 0.625 µg/mL, read-out: IC50 AraC) it was 530 ng/mL; in the assay with HeLa cells (96 h, 28,314 at 1.25 µg/mL, read-out: IC50 AraC), 370 ng/mL; in the assay with HeLa cells (96 h, 28,314 at 2.5 µg/mL, read-out: IC50 AraC) it was 350 ng/mL. Moreover, the IC50 is 220 ng/mL with HeLa cells (96 h, 28,314 at 5 µg/mL, read-out: IC50 AraC); 150 ng/mL with HeLa cells (96 h, 28,314 at 10 µg/mL, read-out: IC50 AraC); 140 ng/mL in the assay with HeLa cells (96 h, 28,314 at 20 µg/mL, read-out: IC50 AraC); 140 ng/mL with HeLa cells (96 h, 28,314 at 40 µg/mL, read-out: IC50 AraC); 140 ng/mL with HeLa cells (96 h, 28,314 at 80 µg/mL, read-out: IC50 AraC).
Consider `CCNCCCNCCCCCCCNCCCNCC` [Compound 28,314, N,N'-Bis[3-(ethylamino)propyl]-1,7-heptanediamine], for which the “Mean Survival Time” value with L1210 Leukemia (28,314 5 mg/kg every 3 hours, 4 times per day (20 mg/Kg/day), days 4,5) came to 12.6 ± 0.9 days. Further, the IC50 is 17700 ng/mL in assay [1] (MCA 38 cells, Table 2 (cisplatin series), read-out: IC50 28,314 alone); 25000 ng/mL in assay [1] (MCA 38 cells, Table 3 (adriamycin series), read-out: IC50 28,314 alone); 3540 ng/mL in assay [1] (MCA 38 cells, Table 4 (AraC series), read-out: IC50 28,314 alone); 10000 ng/mL in assay [1] (MCA 38 cells, Table 5 (vinblastine series), read-out: IC50 28,314 alone); roughly 200000 ng/mL in the assay with HeLa cells (96 h, Table 6 (cisplatin series), read-out: IC50 28,314 alone); 1590 ng/mL in the assay on HeLa cells (96 h, Table 7 (adriamycin series), read-out: IC50 28,314 alone). Moreover, the IC50 in the assay with HeLa cells (96 h, Table 8 (AraC series), read-out: IC50 28,314 alone) is roughly 160000 ng/mL.
Take `N.N.[Cl][Pt][Cl]` [Cisplatin]: the “IC50 Cisplatin” value in assay [1] (MCA 38 cells, 28,314 at 0 µg/mL (cisplatin alone)) is reported as 0.847 µg/mL; in assay [1] (MCA 38 cells, 28,314 at 0.2 µg/mL), 0.58 µg/mL; in assay [1] (MCA 38 cells, 28,314 at 0.39 µg/mL), 0.387 µg/mL; in assay [1] (MCA 38 cells, 28,314 at 0.78 µg/mL) it was 0.376 µg/mL; in assay [1] (MCA 38 cells, 28,314 at 1.56 µg/mL), 0.276 µg/mL; in assay [1] (MCA 38 cells, 28,314 at 3.125 µg/mL), 0.177* µg/mL. Also, the “IC50 Cisplatin” value in assay [1] (MCA 38 cells, 28,314 at 6.25 µg/mL) is 0.165 µg/mL; in assay [1] (MCA 38 cells, 28,314 at 12.5 µg/mL), 0.053 µg/mL; in the assay on HeLa cells (28,314 at 0 µg/mL (cisplatin alone)), 0.359 µg/mL; with HeLa cells (28,314 at 0.39 µg/mL), 0.336 µg/mL; in the assay with HeLa cells (28,314 at 0.78 µg/mL), 0.276 µg/mL; with HeLa cells (28,314 at 1.563 µg/mL) it was 0.186 µg/mL. Further, the “IC50 Cisplatin” value in the assay on HeLa cells (28,314 at 3.125 µg/mL) is given as 0.130 µg/mL; in the assay on HeLa cells (28,314 at 6.25 µg/mL), 0.088 µg/mL; in the assay with HeLa cells (28,314 at 12.5 µg/mL), 0.074* µg/mL; in the assay on HeLa cells (28,314 at 25 µg/mL), 0.068 µg/mL; with HeLa cells (28,314 at 50 µg/mL), 0.068 µg/mL; in the assay on HeLa cells (28,314 at 100 µg/mL), 0.057 µg/mL.
In the case of `COc1cccc2c1C(=O)c1c(O)c3c(c(O)c1C2=O)C[C@@](O)(C(=O)CO)C[C@@H]3O[C@H]1C[C@H](N)[C@H](O)[C@H](C)O1` [Adriamycin, adriamycin], the IC50 in assay [1] (MCA 38 cells, 28,314 at 0 µg/mL (adriamycin alone), read-out: IC50 Adriamycin) worked out at 7.9 ng/mL; in assay [1] (MCA 38 cells, 28,314 at 0.39 µg/mL, read-out: IC50 Adriamycin) it was 7.5 ng/mL; in assay [1] (MCA 38 cells, 28,314 at 0.78 µg/mL, read-out: IC50 Adriamycin), 7.3 ng/mL; in assay [1] (MCA 38 cells, 28,314 at 1.563 µg/mL, read-out: IC50 Adriamycin), 7 ng/mL; in assay [1] (MCA 38 cells, 28,314 at 3.125 µg/mL, read-out: IC50 Adriamycin), 6.3 ng/mL; in assay [1] (MCA 38 cells, 28,314 at 6.25 µg/mL, read-out: IC50 Adriamycin), 2.5 ng/mL. Besides, the IC50 in assay [1] (MCA 38 cells, 28,314 at 12.5 µg/mL, read-out: IC50 Adriamycin) was 1.8 ng/mL; with HeLa cells (96 h, 28,314 at 0 µg/mL (adriamycin alone), read-out: IC50 Adriamycin), 8.6 ng/mL; in the assay on HeLa cells (96 h, 28,314 at 0.2 µg/mL, read-out: IC50 Adriamycin), 6.7 ng/mL; with HeLa cells (96 h, 28,314 at 0.39 µg/mL, read-out: IC50 Adriamycin), 5.8 ng/mL; in the assay with HeLa cells (96 h, 28,314 at 0.78 µg/mL, read-out: IC50 Adriamycin), 4.8 ng/mL; in the assay on HeLa cells (96 h, 28,314 at 1.5625 µg/mL, read-out: IC50 Adriamycin), 1.5 ng/mL.
